Data on eight molecules can be found in ChEMBL document CHEMBL1123187, “3-Hydroxy-3-methylglutaryl-coenzyme A reductase inhibitors. 5. 6-(Fluoren-9-yl)- and 6-(fluoren-9-ylidenyl)-3,5-dihydroxyhexanoic acids and their lactone derivatives” (J Med Chem, 1986).

Broadly, the IC50 is the concentration that inhibits the measured activity by half. A higher IC50 goes with weaker potency in that assay.

In assay [1] the target is T1, 3-hydroxy-3-methylglutaryl-coenzyme A reductase (Rattus norvegicus, UniProt P51639).
T1 sequence (P51639 whole entry): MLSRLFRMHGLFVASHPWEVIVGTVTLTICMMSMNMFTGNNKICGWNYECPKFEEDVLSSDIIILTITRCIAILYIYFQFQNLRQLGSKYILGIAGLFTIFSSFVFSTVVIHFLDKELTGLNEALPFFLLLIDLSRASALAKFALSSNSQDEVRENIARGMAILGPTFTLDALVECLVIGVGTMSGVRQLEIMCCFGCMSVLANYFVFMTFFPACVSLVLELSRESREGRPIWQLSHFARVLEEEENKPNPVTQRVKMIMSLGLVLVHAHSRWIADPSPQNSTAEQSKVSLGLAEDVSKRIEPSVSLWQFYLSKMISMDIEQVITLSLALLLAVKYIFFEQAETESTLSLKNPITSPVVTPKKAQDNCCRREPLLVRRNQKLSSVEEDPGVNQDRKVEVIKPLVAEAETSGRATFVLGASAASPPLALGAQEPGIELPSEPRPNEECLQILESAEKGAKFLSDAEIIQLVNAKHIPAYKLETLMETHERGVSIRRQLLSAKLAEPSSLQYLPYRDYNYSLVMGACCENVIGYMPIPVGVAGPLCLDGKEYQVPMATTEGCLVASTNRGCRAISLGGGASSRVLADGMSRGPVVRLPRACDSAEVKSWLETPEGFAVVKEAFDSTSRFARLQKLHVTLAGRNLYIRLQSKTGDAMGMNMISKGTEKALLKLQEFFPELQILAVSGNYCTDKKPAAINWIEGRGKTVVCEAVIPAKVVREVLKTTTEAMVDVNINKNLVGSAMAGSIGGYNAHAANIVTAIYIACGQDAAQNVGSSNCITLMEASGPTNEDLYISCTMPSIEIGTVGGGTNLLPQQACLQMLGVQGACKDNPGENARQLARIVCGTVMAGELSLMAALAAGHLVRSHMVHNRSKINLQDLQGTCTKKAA
Nature of the assay: Compound was tested in vitro for its ability to inhibit rat liver HMG-CoA reductase.

Assay [2] concerns the target T2, 3-hydroxy-3-methylglutaryl-coenzyme A reductase (Rattus norvegicus) (UniProt P51639).
T2 sequence (whole entry): T1 sequence (P51639 whole entry)
The experiment in a line: Compound was tested for its ability to inhibit solubilized, purified rat liver HMG-CoA reductase, relative to compactin(100).

Assay [3] addresses T2, 3-hydroxy-3-methylglutaryl-coenzyme A reductase (Rattus norvegicus). Nature of the assay: compound was tested for its ability to inhibit solubilized, purified rat liver HMG-CoA reductase, relative to compactin(100).

Structures are written as SMILES.

As for `Cc1cc(C)c2c(c1)-c1ccccc1/C2=C\[C@@H]1C[C@@H](O)CC(=O)O1`, the concentration for half-maximal inhibition (IC50) in assay [1] worked out at 750 nM. In addition, the Relative potency in assay [2] was 1.9. As for `Cc1cc(C)cc(-c2cc(C)cc(C)c2/C=C/[C@@H]2C[C@@H](O)CC(=O)O2)c1`, the Relative potency in assay [3] was 80. In assay [1], `O=C1C[C@H](O)CC(CC2c3cc(F)ccc3-c3cc(Cl)cc(Cl)c32)O1` (stereo partly specified) displayed an IC50 of 85 nM. In addition, the Relative potency in assay [2] was determined as 14. Consider `O=C1C[C@H](O)C[C@@H](/C=C/c2ccccc2-c2ccccc2)O1`, for which, in assay [3], the Relative potency worked out at 0.63. Still for that read-out and setting: as for `O=C1C[C@H](O)C[C@@H](/C=C/c2c(Cl)cc(Cl)cc2-c2ccccc2)O1`, the figure is 26; as for `O=C1C[C@H](O)C[C@@H](/C=C/c2c(Cl)cc(Cl)cc2-c2ccc(F)cc2)O1`, 100. Turning to `O=C1C[C@H](O)C[C@@H](C=C2c3ccccc3-c3ccccc32)O1`, the Relative potency in assay [2] worked out at 1.5. `Cc1cc(C)c2c(c1)-c1cc(C)cc(C)c1C2=C[C@@H]1C[C@@H](O)CC(=O)O1`: half-maximal inhibition in assay [1] (IC50) was put at 830 nM. The same molecule returned a Relative potency in assay [2] of 1.7.
